From patent publication US11278529B2, “Methods for treating aggression associated with Alzheimer's disease” (Ovid Therapeutics Inc., priority 2014, dated 2022)

What was measured:
Fmr1 knockout mice = details: in vivo; cited from earlier work
[1] = tested on: mouse model of Angelman syndrome; details: cited from earlier work
GABA-uptake = details: cited from earlier work
APP/PS1 HET mice = assay: Resident-Intruder (RI) test of aggression; format: in vivo
Text: Behavioral aggression is a common symptom associated with Alzheimer's disease. The Resident-Intruder (RI) test is a behavioral test that can assess aggression in male mice. The two output measures are latency to attack and total number of attacks during the test. 40 Male APP/PS1 HET and 10 Male APP/PS1 WT were used as “residents”. Male C57BL/6J mice were used as intruders.
• animal age (>2 vs. >6 months for Fmr1 and APP/PS1) • housing conditions (APP/PS1 were single housed for 3 weeks ahead of testing) • lab, diet, and potentially lighting Many Other Key Variables were the Same: • route and timing of drug admin (i.p injection 30 min ahead of testing) • gender (male only) • genetic background (C57BL/6J) • 10 animals/group
Mice were screened for baseline aggression in the Resident Intruder test. Mice with attack latencies exceeding 150 seconds were excluded from the study. Mice were then balanced by latency to first attack, attack frequency, and body weight.
Gaboxadol (referred to as Test compound A) was tested at 0.5, 1, and 2 mg/kg following IP injection, 30 min pre-treat time. Mice were tested in Resident-Intruder paradigm for 5 minutes test duration.

GABA = details: cited from earlier work
[2] = tested on: subjects under sleep-restriction; details: 15 mg, cited from earlier work
male Balb/Cbyj mice = assay: Locomotor activity, male Balb/Cbyj mice; format: in vivo; details: male Balb/Cbyj mice, 1.25, 2.5 and 5 mg/Kg i.p. 30 min ahead of testing
Procedure: 10 male Balb/Cbyj mice were administered 0.9% NaCl, and gaboxadol: 1.25 mg/Kg, 2.5 mg/Kg and 5 mg/Kg by i.p injection 30 min ahead of testing.

male C57 mice = assay: Locomotor activity, male C57 mice; format: in vivo; details: male C57 mice, 1.25, 2.5 and 5 mg/Kg i.p. 30 min ahead of testing
Procedure: 10 male C57 mice were administered 0.9% NaCl, and gaboxadol: 1.25 mg/Kg, 2.5 mg/Kg and 5 mg/Kg by i.p injection 30 min ahead of testing.

healthy subjects = details: cited from earlier work
[3] = tested on: patients with primary insomnia; details: cited from earlier work
[4] = tested on: healthy young and elderly individuals; details: in vivo; cited from earlier work
cerebellar granule cells = details: 500 nM; cited from earlier work
[5] = cited from earlier work
predisposed individuals = details: high peak concentrations; cited from earlier work
[6] = tested on: primary insomnia subjects; details: cited from earlier work

## Oc1noc2c1CCNC2 [gaboxadol, 4,5,6,7-tetrahydroisoxazolo(5,4-c)pyridin-3-ol]
Fmr1 knockout mice
  hyperactivity (travel and velocity): reduction or dampening
  hypersensitivity to auditory stimuli: reduction
[1]; 1.25 mg/kg and 2.5 mg/kg
  cerebellar dysfunction in vivo (hind paw abduction): effective to rescue
[1]; 1.25 mg/kg
  adverse effects (reduced time on rotarod): without adverse effects
GABA-uptake
  activity as a GABA-uptake inhibitor: inactive
APP/PS1 HET mice; Alzheimer disease model
  heightened aggression: normalizes heightened aggression
APP/PS1 HET mice; HET mice, 0.5, 1, and 2 mg/kg IP, 30 min pre-treat
  attack frequency: significantly attenuated
APP/PS1 HET mice; HET mice, 0.5, 1, and 2 mg/kg IP, 30 min pre-treat, compared to vehicle
  latency to first attack: significantly increased
GABA
  GABA agonist activity: very potent
[2]; over four sleep-restriction nights
  mean more SWS compared to placebo: 21.8 min
[2]; p<0.001
  stage 4 sleep and SWS compared with the placebo group: significantly more
[2]
  stage 1 sleep, REM sleep, and shifts to wake or stage 1 sleep relative to placebo: small but significant reductions
Male Balb/Cbyj mice
  sedation (locomotor activity, total distance traveled): not sedating
Male C57 mice
  sedation (locomotor activity, total distance traveled): not sedating
Healthy subjects; all dosages (5, 10, 15 mg), p<0.001
  TST increase compared to placebo: approximately 30 minutes
Healthy subjects; all dosages (5, 10, 15 mg), p<0.05
  WASO reduction compared to placebo: 17 to 20 min
Healthy subjects; in vivo
  subjective measures of sleep quality relative to placebo: improved
[3]; 5 mg and 15 mg, p<0.05
  TST: significantly improved
[3]; 15 mg, p<0.05
  latency to persistent sleep: significantly reduced
[3]; 15 mg
  SWS: enhance
  stage 1, stage 2, or REM sleep: without significantly affecting
[3]; statistical significance only with the 5 mg dose
  WASO: improved
[4]
  NREM sleep, sleep continuity, delta activity within NREM sleep, SWS/SWA: increase
  REM sleep: without suppressing
Cerebellar granule cells
  excitability of cerebellar granule cells: reduced
  tonic holding currents: increased
[5]; given orally, healthy subjects
  t max: 30 to 60 min
[5]; mostly unchanged
  dose excreted in the urine: More than 95%
Predisposed individuals
  adverse event: hallucinations
[6]; 10 mg (p<0.01) and 20 mg (p<0.001)
  SWS compared with placebo: increase
[6]; 20 mg, p<0.01
  WASO: significantly reduced
[6]; 20 mg, p<0.05
  TST: significantly increased
[6]; both doses (10 and 20 mg), p<0.001
  NASO: significantly reduced
